Columns and labels:
[1] = Cytotoxicity measured as % loss of cells after 120 min; type: cell-based; settings: rat, 2 h
[2] = Cytotoxicity measured as % loss of cells after 90 min; type: cell-based; settings: rat
[3] = Cytotoxicity measured as % loss of cells after 60 min; type: cell-based; settings: rat, 1 h
[4] = target: Amine oxidase [flavin-containing] B (Bos taurus) (UniProt P56560)
[5] = target: Amine oxidase [flavin-containing] B (Bos taurus) (UniProt P56560); assay: Inactivation of monoamine oxidase measured as kinetic constant, Kinact at 0.8-4 conc range
[6] = target: Amine oxidase [flavin-containing] B (Bos taurus) (UniProt P56560); assay: Inactivation of monoamine oxidase measured as kinetic constant, KI at 0.8-4 conc range

Amine oxidase [flavin-containing] B (Bos taurus), sequence (P56560 whole entry, looked up): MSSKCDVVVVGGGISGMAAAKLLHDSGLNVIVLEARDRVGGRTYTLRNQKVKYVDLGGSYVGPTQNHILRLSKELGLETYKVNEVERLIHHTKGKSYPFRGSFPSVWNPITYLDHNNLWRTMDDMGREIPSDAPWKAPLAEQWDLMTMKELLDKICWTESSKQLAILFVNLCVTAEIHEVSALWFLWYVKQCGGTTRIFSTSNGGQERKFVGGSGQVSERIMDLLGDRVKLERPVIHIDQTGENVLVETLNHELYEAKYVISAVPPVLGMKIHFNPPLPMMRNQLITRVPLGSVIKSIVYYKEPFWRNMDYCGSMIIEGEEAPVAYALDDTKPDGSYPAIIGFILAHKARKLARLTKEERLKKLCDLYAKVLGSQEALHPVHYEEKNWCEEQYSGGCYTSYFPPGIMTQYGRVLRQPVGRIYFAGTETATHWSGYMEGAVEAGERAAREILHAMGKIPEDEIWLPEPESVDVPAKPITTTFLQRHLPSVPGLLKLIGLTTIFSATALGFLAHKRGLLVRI

SMILES | Loss of cells [1] [%] | Loss of cells [2] [%] | Loss of cells [3] [%] | Ki [4] [µM] | kinact [5] [s⁻¹] | Ki [6] [µM]
CN1CC=C(c2ccccc2)CC1 | 81 | 58 | 12 | – | – | –
C/C=C(\C)c1ccccc1 | – | – | – | 1900 | – | –
C#CCN(C)Cc1ccccc1.NC1C=C(c2ccccc2)CCC1 (stereo not given) | 69 | 51 | 24 | – | – | –
CN(C)C1C=C(c2ccccc2)CCC1 (stereo not given) | – | – | 100 | 1040 | – | –
C#CCN(C)Cc1ccccc1.CN(C)C1C=C(c2ccccc2)CCC1 (stereo not given) | – | – | 100 | – | – | –
C#CCN(C)Cc1ccccc1.CN1CC=C(c2ccccc2)CC1 | 5 | 11 | 6 | – | – | –
NC1C=C(c2ccccc2)CCC1 (stereo not given) | 60 | 35 | 28 | 510 | – | –
CN(C)C/C=C/c1ccccc1 | – | – | – | 1350 | 0.00356 | 1330
